Data taken from patent EP0801570B1, “FORMULATIONS AND METHODS FOR REDUCING SKIN IRRITATION” (COSMEDERM TECHNOLOGIES, priority 1994, dated 1996).
Read-outs that look alike come from different tables or passages of the source.

What was measured:
[1] = system: lactic acid skin irritation; experiment: Lactic acid irritation trial, pretreatment test (anti-irritant applied 15 minutes before the irritant); type: in vivo, humans; details: for Percent Inhibition (average inhibition of cumulative irritation): cation salt at 250 mM, lactic acid irritant; for inhibit skin irritation: topical solutions in Elizabeth Arden Visible Difference Refining Toner, various amounts of salt
Description: (§1) The following scaled scores were used for sensory assessment: […]

skin irritation = experiment: Human clinical trials of anti-irritant activity against topical skin irritants; type: in vivo, humans; details: for anti-irritant activity: clinical trials
Description: The objective of the clinical trials was to determine whether and to what extent topical formulations of the calcium cation reduced or prevented skin irritation caused by certain severe skin irritants, including particularly lactic acid and glycolic acid (which are hydroxy acids), capryloyl salicylic acid (a β-hydroxy acid ester) and capsaicin (an isolate from cayenne and paprika known for its skin-irritating properties). The trials were conducted in a double blind, randomized, vehicle-controlled manner. Various formulations of the invention were tested in over 460 people.
(§2) Tests were conducted in multiple panels of from 7 to 12 subjects each. Subjects were instructed not to wear any makeup or facial lotions to the clinic the day of testing. The subjects were instructed to wash their face with Ivory bar soap in the clinic prior to application of test solutions.

[2] = system: lactic acid skin irritation; experiment: Lactic acid irritation trial, time zero test (anti-irritant applied simultaneously with the irritant); type: in vivo, humans; details: time zero tests; for inhibition at 250000 µM: Homo sapiens
Description: as §1

[3] = system: lactic acid skin irritation
Description: The majority of the trials were conducted using lactic acid as the skin irritant, and proceeded generally as follows.
as §2
Lactic acid skin-irritant compositions were formulated in an appropriate vehicle prior to application to the skin of the subjects.
Controls were performed by applying corresponding formulation(s) (pretreatment and/or skin-irritant composition) with an equimolar amount of sodium chloride to a contralateral portion of the subject's skin. Typically, the test materials were applied to the face of the subject.
All test solutions (including controls) were applied in a double blind, randomized fashion using the prepared solutions as previously placed in coded vial designated for use on either the right or left side of the face (or other test area). Solutions were typically applied using a cotton swab (six strokes) or sponge applicator to the face and cheek area extending from the midline of the nose over to the center of the cheek and from the cheek bone down to the jaw line. Application was made first to the right side and then to the left.
The following scaled scores were used for sensory assessment:
Symptom scores were cumulated, separately for the cation-treated and control-treated areas, for each individual and also for the panel as a whole.

[4] = pretreatment tests, representative panels, cation concentration 250 mM, vehicle VIS DIFFERENCE
[5] = cation salt at 250 mM, lactic acid irritant
[6] = representative panels, cation concentration 250 mM, vehicle 10% EtOH

## [Ca+2].[Cl-].[Cl-] [Calcium chloride]
[1]; pretreatment tests
  Percent Inhibition (average inhibition of cumulative irritation): 35%
[1]; [4]
  Percent Inhibition: 35%
[1]
  inhibit skin irritation: effective to inhibit skin irritation
Skin irritation
  anti-irritant activity: particularly active as anti-irritants
[2]; [5]
  Percent Inhibition (average inhibition of cumulative irritation): 65%
[2]; [6]
  Percent Inhibition: 61%

## O=[N+]([O-])[O-].O=[N+]([O-])[O-].[Ca+2] [Calcium nitrate]
[1]; pretreatment tests
  Percent Inhibition (average inhibition of cumulative irritation): 45%
[1]; [4]
  Percent Inhibition: 44%
[1]
  inhibit skin irritation: effective to inhibit skin irritation
Skin irritation
  anti-irritant activity: particularly active as anti-irritants
[3]; concentration 31 mM
  Percent Inhibition (cumulative irritation inhibition): 26%
[3]; concentration 62 mM
  Percent Inhibition (cumulative irritation inhibition): 52%
[3]; concentration 125 mM
  Percent Inhibition (cumulative irritation inhibition): 83%
[3]; concentration 250 mM
  Percent Inhibition (cumulative irritation inhibition): 82%
[3]; concentration 500 mM
  Percent Inhibition (cumulative irritation inhibition): 67%
[2]; [5]
  Percent Inhibition (average inhibition of cumulative irritation): 90%
[2]; [6]
  Percent Inhibition: 85%

## CC(=O)[O-].CC(=O)[O-].[Ca+2] [Calcium acetate]
[1]; pretreatment tests
  Percent Inhibition (average inhibition of cumulative irritation): 40%
[1]; [4]
  Percent Inhibition: 30%
[1]
  inhibit skin irritation: effective to inhibit skin irritation
Skin irritation
  anti-irritant activity: particularly active as anti-irritants
[2]; [5]
  Percent Inhibition (average inhibition of cumulative irritation): 60%
[2]; [6]
  Percent Inhibition: 65%

## O=C(O)[C@H](O)[C@@H](O)[C@H](O)[C@H](O)CO [Calcium gluconate]
[1]; Homo sapiens, pretreatment tests, representative panels, cation concentration 250 mM, vehicle VIS DIFFERENCE, read-out: Percent Inhibition
  inhibition at 250000 µM: 40%
Skin irritation
  anti-irritant activity: particularly active as anti-irritants
[2]; cation salt at 250 mM, lactic acid irritant, read-out: Percent Inhibition (average inhibition of cumulative irritation)
  inhibition at 250000 µM: 40%
[2]; representative panels, cation concentration 250 mM, vehicle 10% EtOH, read-out: Percent Inhibition
  inhibition at 250000 µM: 49%

## [Ca+2] [calcium(II) (Ca^2+)]
Skin irritation; applied topically to the skin, irritants lactic acid, glycolic acid, capryloyl salicylic acid and benzoyl peroxide
  suppress stinging, burning, tingling, itching and/or erythema: effective
Skin irritation
  anti-irritant activity: significant and reproducible anti-irritant effects
